In ChEMBL document CHEMBL4813916, “Synthesis and characterization of new potent TLR7 antagonists based on analysis of the binding mode using biomolecular simulations” (Eur J Med Chem, 2021):

Columns and labels:
Toll-like receptor 7 [1] = target: T1, Toll-like receptor 7 (Homo sapiens, UniProt Q9NYK1); assay: Antagonist activity at TLR7 (unknown origin)
T1 sequence (Q9NYK1 whole entry): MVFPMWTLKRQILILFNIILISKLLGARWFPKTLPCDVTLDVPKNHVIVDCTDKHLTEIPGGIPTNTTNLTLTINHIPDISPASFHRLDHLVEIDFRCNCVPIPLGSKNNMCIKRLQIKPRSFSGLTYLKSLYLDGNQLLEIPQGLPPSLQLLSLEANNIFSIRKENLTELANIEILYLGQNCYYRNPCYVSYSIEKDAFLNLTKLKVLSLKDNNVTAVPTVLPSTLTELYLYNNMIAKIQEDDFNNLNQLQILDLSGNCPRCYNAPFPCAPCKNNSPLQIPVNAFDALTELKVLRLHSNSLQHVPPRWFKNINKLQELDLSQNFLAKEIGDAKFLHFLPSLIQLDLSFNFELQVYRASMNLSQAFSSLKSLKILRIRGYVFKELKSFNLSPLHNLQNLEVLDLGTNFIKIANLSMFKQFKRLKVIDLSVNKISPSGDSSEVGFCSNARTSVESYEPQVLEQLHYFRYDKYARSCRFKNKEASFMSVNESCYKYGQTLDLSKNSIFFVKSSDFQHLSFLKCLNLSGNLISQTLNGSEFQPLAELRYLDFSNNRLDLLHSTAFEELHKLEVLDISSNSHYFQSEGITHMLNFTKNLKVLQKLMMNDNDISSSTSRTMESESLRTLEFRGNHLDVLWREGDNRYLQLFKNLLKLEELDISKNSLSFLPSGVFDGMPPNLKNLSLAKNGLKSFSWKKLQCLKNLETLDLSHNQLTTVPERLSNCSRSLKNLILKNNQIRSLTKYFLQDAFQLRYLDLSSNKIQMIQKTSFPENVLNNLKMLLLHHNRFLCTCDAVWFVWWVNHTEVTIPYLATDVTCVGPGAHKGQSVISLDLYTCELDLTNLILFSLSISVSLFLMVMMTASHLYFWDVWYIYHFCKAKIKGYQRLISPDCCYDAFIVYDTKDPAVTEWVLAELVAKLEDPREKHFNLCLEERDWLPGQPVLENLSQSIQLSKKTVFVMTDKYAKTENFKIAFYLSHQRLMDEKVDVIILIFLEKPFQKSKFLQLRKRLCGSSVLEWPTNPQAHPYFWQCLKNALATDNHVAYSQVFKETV

Toll-like receptor 7 [2] = target: T1, Toll-like receptor 7; assay: Antagonist activity at human TLR7 expressed in HEK-blue-HTLR7 cells assessed as inhibition of CL264-induced NFkappaB activation measured after 24 hrs by secreted alkaline phosphatase reporter assay; assay type: cell-based

| SMILES | IC50 (Toll-like receptor 7 [1]) [µM] | IC50 (Toll-like receptor 7 [2]) [µM] |
| --- | --- | --- |
| CCCCSc1nnc2n(N)c(=O)c3ccccc3n12 | 185 |  |
| COc1ccc(CNc2nc(N3CCN(C)CC3)c3cc(OC)c(OCc4ccccc4)cc3n2)cc1 |  | 19.9 |
| CCCNc1nc2c(c(=O)n(C)c(=O)n2C)n1CC(C)C | 660 |  |
| COc1cc2c(N3CCN(C(=O)c4ccccc4)CC3)nc(N(C)C)nc2cc1OC1CCCC1 | 10 |  |
| Nc1ncnc2c1ncn2CCO | 684 |  |
| COc1cc2c(N3CCN(C(=O)OC(C)(C)C)CC3)nc(N3CCN(C)CC3)nc2cc1OCc1ccccc1 | 10 |  |
| COC(=O)[C@H]1O[C@H](n2cnc3c(N)ncnc32)[C@H](O)[C@@H]1O | > 1000 |  |
| NCc1ccc(C(=O)Nc2cccc(-c3nc4cc(OCCCN5CCCC5)ccc4o3)c2)cc1 | 66.2 |  |
| CCCSc1nc2c(O)nnc(O)c2n1Cc1ccccc1 | 110 |  |

Further lines, results first:

| IC50 (Toll-like receptor 7 [1]) [µM] | IC50 (Toll-like receptor 7 [2]) [µM] | SMILES |
| --- | --- | --- |
|  | 1.83 | COc1ccc(CNc2nc(N3CCN(C4CCCC4)CC3)c3cc(OC)c(OCCCN4CCCC4)cc3n2)cc1 |
|  | 27.8 | COc1ccc(CNc2nc(N3CCNCC3)c3cc(OC)c(OCc4ccccc4)cc3n2)cc1 |
| 37 |  | CCN(CC)CCn1cnc2c(=O)oc3ccccc3c21 |
| 23 |  | CC(C)Cn1cnc2c(=O)oc3ccccc3c21 |
| 272 |  | Nc1ncnc2c1nc(Br)n2C[C@@H](O)CO |
| 253 |  | CCSc1nc2c(N)ncnc2[nH]1 |
|  | > 50 | COc1cc2c(N(C)C)nc(NCCCN3CCN(C)CC3)nc2cc1OCCCN1CCCC1 |
